The source of these data is patent publication US10034861B2 (priority 2016, dated 2018).

Type in all cases: biochemical
One experiment concerns the target PDE1A (Homo sapiens (Human), UniProt P54750). The experiment can be described thus: biochemical. Conditions: 15 nM tritium labelled cAMP, 1 hr at room temperature, SPA beads. An excerpt:
(§1) Table 1 lists the IC50 value for inhibition of PDE1 by the compounds of the invention. […] PDE1 assays are described in the Experimental Section.

Another experiment concerns the target PDE1C (Homo sapiens (Human), UniProt Q14123). The experiment can be described thus: biochemical. Conditions: 15 nM tritium labelled cAMP, 1 hr at room temperature, SPA beads.
From the text: as §1

The target of the next experiment is PDE1B (Homo sapiens (Human), UniProt Q01064). The experiment can be described thus: PDE1 inhibition assay (PDE1B). The note with it: 15 nM tritium labelled cAMP, 1 hr at room temperature, SPA beads; read-out: PDE1B, IC50.
PDE1B, sequence (Q01064 whole entry): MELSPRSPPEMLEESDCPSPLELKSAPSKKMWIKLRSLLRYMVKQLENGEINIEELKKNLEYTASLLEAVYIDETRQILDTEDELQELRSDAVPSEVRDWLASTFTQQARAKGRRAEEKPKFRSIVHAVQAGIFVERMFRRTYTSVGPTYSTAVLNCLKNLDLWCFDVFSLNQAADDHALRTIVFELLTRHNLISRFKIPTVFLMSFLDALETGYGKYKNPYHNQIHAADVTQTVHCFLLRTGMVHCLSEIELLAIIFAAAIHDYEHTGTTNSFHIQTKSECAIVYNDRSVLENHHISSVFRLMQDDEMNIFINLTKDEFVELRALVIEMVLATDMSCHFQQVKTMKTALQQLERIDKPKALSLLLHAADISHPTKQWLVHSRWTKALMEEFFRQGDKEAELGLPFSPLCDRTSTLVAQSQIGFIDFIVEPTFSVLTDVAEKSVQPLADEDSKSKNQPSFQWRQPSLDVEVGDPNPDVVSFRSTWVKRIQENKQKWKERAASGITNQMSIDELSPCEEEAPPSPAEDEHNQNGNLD
From the text: as §1

PDE1A, sequence (P54750 whole entry): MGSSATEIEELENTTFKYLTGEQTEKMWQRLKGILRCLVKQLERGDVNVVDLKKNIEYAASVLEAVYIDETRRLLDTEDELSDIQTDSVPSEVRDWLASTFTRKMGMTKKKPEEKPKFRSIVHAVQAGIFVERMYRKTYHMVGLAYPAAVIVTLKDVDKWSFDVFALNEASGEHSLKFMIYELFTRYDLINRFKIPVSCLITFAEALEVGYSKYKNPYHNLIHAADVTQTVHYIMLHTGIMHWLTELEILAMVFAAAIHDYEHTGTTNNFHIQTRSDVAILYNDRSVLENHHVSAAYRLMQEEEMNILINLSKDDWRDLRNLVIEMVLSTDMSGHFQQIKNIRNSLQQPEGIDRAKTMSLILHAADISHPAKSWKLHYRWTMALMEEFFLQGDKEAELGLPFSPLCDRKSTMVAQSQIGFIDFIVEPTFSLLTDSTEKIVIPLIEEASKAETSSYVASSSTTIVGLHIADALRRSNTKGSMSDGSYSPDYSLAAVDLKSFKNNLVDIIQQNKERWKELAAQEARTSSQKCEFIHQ
PDE1C, sequence (Q14123 whole entry): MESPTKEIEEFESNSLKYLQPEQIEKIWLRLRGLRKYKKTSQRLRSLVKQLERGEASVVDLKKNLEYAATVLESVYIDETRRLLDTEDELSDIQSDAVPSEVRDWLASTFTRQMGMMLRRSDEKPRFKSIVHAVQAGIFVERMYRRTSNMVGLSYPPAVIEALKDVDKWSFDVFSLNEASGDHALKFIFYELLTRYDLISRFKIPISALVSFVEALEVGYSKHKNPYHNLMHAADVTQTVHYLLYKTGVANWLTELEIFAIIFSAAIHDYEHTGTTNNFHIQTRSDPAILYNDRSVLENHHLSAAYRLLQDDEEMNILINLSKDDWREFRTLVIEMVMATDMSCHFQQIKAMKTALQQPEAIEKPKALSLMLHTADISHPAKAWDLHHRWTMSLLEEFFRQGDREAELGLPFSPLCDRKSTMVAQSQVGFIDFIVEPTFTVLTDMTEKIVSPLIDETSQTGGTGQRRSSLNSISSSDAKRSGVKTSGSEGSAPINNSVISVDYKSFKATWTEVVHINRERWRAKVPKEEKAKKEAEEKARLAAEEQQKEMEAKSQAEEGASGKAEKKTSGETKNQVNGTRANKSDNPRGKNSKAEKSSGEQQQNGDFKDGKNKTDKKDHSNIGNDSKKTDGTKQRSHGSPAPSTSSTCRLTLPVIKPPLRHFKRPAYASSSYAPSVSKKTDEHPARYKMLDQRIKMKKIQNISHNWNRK

`CCOc1ncccc1-c1cc(NCc2cnn(C)c2)c2c(n1)c(C)nn2C1CC1` [Example 12, 1-cyclopropyl-5-(2-ethoxy-3-pyridyl)-3-methyl-N-[(1-methylpyrazol-4-yl)methyl]pyrazolo[4,3-b]pyridin-7-amine]: the IC50 against PDE1A was found to be 200 nM; against PDE1C it was 690 nM; at PDE1B it was 60 nM.
In the same order, the values of `CCCn1ncc2nc(-c3cccnc3OCC)cc(NCc3cnn(C)c3)c21` [Example 13, 5-(2-ethoxy-3-pyridyl)-N-[(1-methylpyrazol-4-yl)methyl]-1-propyl-pyrazolo[4,3-b]pyridin-7-amine] are 90 nM, 340 nM and 15 nM.
Consider `CCOc1ncccc1-c1cc(NCc2cnn(C)c2)c2c(cnn2C2COC2)n1` [Example 14, 5-(2-ethoxypyridin-3-yl)-N-((1-methyl-1H-pyrazol-4-yl)methyl)-1-(oxetan-3-yl)-1H-pyrazolo[4,3-b]pyridin-7-amine], for which the 50% inhibitory concentration (IC50) against PDE1A turned out to be 450 nM; at PDE1C, 300 nM; on PDE1B, 38 nM.
In the same order, the values of `CCOc1ncccc1-c1cc(NCc2cnn(C)c2)c2c(cnn2C)n1` [Example 16, 5-(2-ethoxypyridin-3-yl)-1-methyl-N-((1-methyl-1H-pyrazol-4-yl)methyl)-1H-pyrazolo[4,3-b]pyridin-7-amine] are 670 nM, 1800 nM and 92 nM.
With `CCOc1ncccc1-c1cc(NCc2nccn2C)c2c(cnn2C(C)C)n1` [Example 17, 5-(2-ethoxy-3-pyridyl)-1-isopropyl-N-[(1-methylimidazol-2-yl)methyl]pyrazolo[4,3-b]pyridin-7-amine], the IC50 at PDE1A is 700 nM; against PDE1C it was 970 nM; at PDE1B it was 54 nM.
For `CCOc1ncccc1-c1cc(NCc2ccnn2C)c2c(cnn2C(C)C)n1` [Example 18, 5-(2-ethoxypyridin-3-yl)-1-isopropyl-N-((1-methyl-1H-pyrazol-5-yl)methyl)-1H-pyrazolo[4,3-b]pyridin-7-amine], the concentration for half-maximal inhibition (IC50) against PDE1A came out at 450 nM; against PDE1C, 640 nM; at PDE1B, 73 nM.
Consider `CCOc1ncccc1-c1cc(NCc2ccn(C)n2)c2c(cnn2C(C)C)n1` [Example 19, 5-(2-ethoxypyridin-3-yl)-1-isopropyl-N-((1-methyl-1H-pyrazol-3-yl)methyl)-1H-pyrazolo[4,3-b]pyridin-7-amine], for which the results for the half-inhibitory concentration (IC50) at PDE1A, at PDE1C and on PDE1B were 66 nM, 150 nM and 4.6 nM, respectively.
For `CCOc1ncccc1-c1cc(NCc2nccs2)c2c(cnn2C(C)C)n1` [Example 20, 5-(2-ethoxy-3-pyridyl)-1-isopropyl-N-(thiazol-2-ylmethyl)pyrazolo[4,3-b]pyridin-7-amine], the IC50 at PDE1A is 520 nM; at PDE1C it was 600 nM; at PDE1B, 37 nM.
For the molecule `CCOc1ncccc1-c1cc(NCc2cn(C)cn2)c2c(cnn2C(C)C)n1` [Example 21, 5-(2-ethoxy-3-pyridyl)-1-isopropyl-N-[(1-methylimidazol-4-yl)methyl]pyrazolo[4,3-b]pyridin-7-amine], the IC50 was found to be 8.9 nM against PDE1A, 29 nM on PDE1C and 0.44 nM at PDE1B.
As to `CCOc1ncccc1-c1cc(NCc2ccncc2)c2c(cnn2C(C)C)n1` [Example 22, 5-(2-ethoxy-3-pyridyl)-1-isopropyl-N-(4-pyridylmethyl)pyrazolo[4,3-b]pyridin-7-amine], the IC50 came out at 250 nM against PDE1A, 430 nM against PDE1C and 50 nM at PDE1B.
Turning to `CCOc1ncccc1-c1cc(NCc2cccc(C)c2)c2c(cnn2C(C)C)n1` [Example 23, 5-(2-ethoxy-3-pyridyl)-1-isopropyl-N-(m-tolylmethyl)pyrazolo[4,3-b]pyridin-7-amine], the IC50 worked out at 240 nM at PDE1A, 750 nM on PDE1C and 38 nM on PDE1B.
For `CCOc1ncccc1-c1cc(NCc2ccc(C)cc2)c2c(cnn2C(C)C)n1` [Example 24, 5-(2-ethoxy-3-pyridyl)-1-isopropyl-N-(p-tolylmethyl)pyrazolo[4,3-b]pyridin-7-amine], the concentration for half-maximal inhibition (IC50) is 380 nM on PDE1A, 1200 nM against PDE1C and 160 nM on PDE1B.
On to `CCOc1ncccc1-c1cc(NCc2cnn(C)c2)c2c(cnn2C(C)C)n1` [Example 25, 5-(2-ethoxy-3-pyridyl)-1-isopropyl-N-[(1-methylpyrazol-4-yl)methyl]pyrazolo[4,3-b]pyridin-7-amine], for which the IC50 against PDE1A came to 56 nM; against PDE1C, 150 nM; at PDE1B, 4.6 nM.
Taken in the same sequence, the figures for `CCOc1ncccc1-c1cc(NCc2cnn(C)c2)c2c(n1)c(C)nn2C1COC1` [Example 27, 5-(2-ethoxy-3-pyridyl)-3-methyl-N-[(1-methylpyrazol-4-yl)methyl]-1-(oxetan-3-yl)pyrazolo[4,3-b]pyridin-7-amine] were 94 nM, 170 nM and 6.6 nM.
`CCOc1ncccc1-c1cc(NCc2cnn(C)c2)c2c(n1)c(C)nn2C` [Example 28, 5-(2-ethoxy-3-pyridyl)-1,3-dimethyl-N-[(1-methylpyrazol-4-yl)methyl]pyrazolo[4,3-b]pyridin-7-amine]: the IC50 on PDE1A is 550 nM; against PDE1C, 1900 nM; on PDE1B, 85 nM.
In the same order, the values of `CCOc1ncccc1-c1cc(NCc2nc(C)no2)c2c(n1)c(C)nn2C(C)C` [Example 30, 5-(2-ethoxy-3-pyridyl)-1-isopropyl-3-methyl-N-[(3-methyl-1,2,4-oxadiazol-5-yl)methyl]pyrazolo[4,3-b]pyridin-7-amine] are 15 nM, 31 nM and 1.3 nM.
Consider `CCOc1ncccc1-c1cc(NCc2cnc(C)s2)c2c(n1)c(C)nn2C(C)C` [Example 32, 5-(2-ethoxy-3-pyridyl)-1-isopropyl-3-methyl-N-[(2-methylthiazol-5-yl)methyl]pyrazolo[4,3-b]pyridin-7-amine], for which the IC50 on PDE1A came to 4.6 nM; at PDE1C it was 6.2 nM; on PDE1B it was 0.14 nM.
Regarding `CCOc1ncccc1-c1cc(NCc2nnc(C)s2)c2c(n1)c(C)nn2C(C)C` [Example 33, 5-(2-ethoxy-3-pyridyl)-1-isopropyl-3-methyl-N-[(5-methyl-1,3,4-thiadiazol-2-yl)methyl]pyrazolo[4,3-b]pyridin-7-amine], the IC50 at PDE1A came out at 1.6 nM; against PDE1C, 7.9 nM; at PDE1B, 0.41 nM.
With `CCOc1ncccc1-c1cc(NCc2csc(C)c2)c2c(n1)c(C)nn2C(C)C` [Example 34, 5-(2-ethoxy-3-pyridyl)-1-isopropyl-3-methyl-N-[(5-methyl-3-thienyl)methyl]pyrazolo[4,3-b]pyridin-7-amine], the concentration for half-maximal inhibition (IC50) was found to be 8.1 nM on PDE1A, 21 nM against PDE1C and 1.8 nM at PDE1B.
`CCOc1ncccc1-c1cc(NCc2cc(C)cs2)c2c(n1)c(C)nn2C(C)C` [Example 35, 5-(2-ethoxy-3-pyridyl)-1-isopropyl-3-methyl-N-[(4-methyl-2-thienyl)methyl]pyrazolo[4,3-b]pyridin-7-amine]: the figures for the IC50 against PDE1A, against PDE1C and on PDE1B were 7.3 nM, 32 nM and 1.7 nM, respectively.
Regarding `CCOc1ncccc1-c1cc(NCc2ccc(C)s2)c2c(n1)c(C)nn2C(C)C` [Example 36, 5-(2-ethoxy-3-pyridyl)-1-isopropyl-3-methyl-N-[(5-methyl-2-thienyl)methyl]pyrazolo[4,3-b]pyridin-7-amine], the IC50 against PDE1A is 24 nM; at PDE1C, 41 nM; at PDE1B, 5.2 nM.
For the molecule `CCOc1ncccc1-c1cc(NCc2coc(C)n2)c2c(n1)c(C)nn2C(C)C` [Example 37, 5-(2-ethoxy-3-pyridyl)-1-isopropyl-3-methyl-N-[(2-methyloxazol-4-yl)methyl]pyrazolo[4,3-b]pyridin-7-amine], the IC50 on PDE1A was found to be 5.9 nM; against PDE1C, 18 nM; on PDE1B it was 0.43 nM.
For the molecule `CCOc1ncccc1-c1cc(NCc2ncc(C)o2)c2c(n1)c(C)nn2C(C)C` [Example 38, 5-(2-ethoxy-3-pyridyl)-1-isopropyl-3-methyl-N-[(5-methyloxazol-2-yl)methyl]pyrazolo[4,3-b]pyridin-7-amine], the values for the IC50 against PDE1A, against PDE1C and on PDE1B were 1.1 nM, 13 nM and 0.24 nM, respectively.
Taken in the same sequence, the figures for `CCOc1ncccc1-c1cc(NCc2cc[nH]n2)c2c(n1)c(C)nn2C(C)C` [Example 39, 5-(2-ethoxy-3-pyridyl)-1-isopropyl-3-methyl-N-(1H-pyrazol-3-ylmethyl)pyrazolo[4,3-b]pyridin-7-amine] were 8.1 nM, 13 nM and 0.43 nM.
Consider `CCOc1ncccc1-c1cc(NCc2c[nH]cn2)c2c(n1)c(C)nn2C(C)C` [Example 40, 5-(2-ethoxy-3-pyridyl)-N-(1H-imidazol-4-ylmethyl)-1-isopropyl-3-methyl-pyrazolo[4,3-b]pyridin-7-amine], for which the results for the IC50 at PDE1A, against PDE1C and on PDE1B were 14 nM, 32 nM and 1 nM, respectively.
In the same order, the values of `CCOc1ncccc1-c1cc(NCc2ccccc2)c2c(cnn2C(C)C)n1` [Example 41, N-benzyl-5-(2-ethoxy-3-pyridyl)-1-isopropyl-pyrazolo[4,3-b]pyridin-7-amine] are 500 nM, 500 nM and 45 nM.
On to `CCOc1ncccc1-c1cc(NCc2c[nH]c(C)n2)c2c(n1)c(C)nn2C(C)C` [Example 46, 5-(2-ethoxypyridin-3-yl)-1-isopropyl-3-methyl-N-((2-methyl-1H-imidazol-4-yl)methyl)-1H-pyrazolo[4,3-b]pyridin-7-amine], for which the IC50 worked out at 5 nM at PDE1A, 9.7 nM against PDE1C and 0.42 nM at PDE1B.

What is called IC50 is the concentration that gives 50% inhibition.
